According to article PMC12392461, “Beyond Estrogenicity: A Comparative Assessment of Bisphenol A and Its Alternatives in In Vitro Assays Questions Safety of Replacements” (Environmental Science & Technology, 2025):
Read-outs that look alike come from different tables or passages of the source.

Legend:
[1] = test system: ERα-UAS-bla GripTite cells
Protocol: Cell culture conditions and bioassay protocols including response detection are provided in Text S2.1–2.4 and Table S3. − Cell viability was determined from cell confluency using an IncuCyte S3 Live-Cell Analysis System (Sartorius AG, Essen, Germany) before and after exposure, except for SH-SY5Y cells (live–dead staining with Nuclear Green LcS1 and propidium iodide, Abcam, UK). For metabolic activation experiments, cell viability was assessed using the ToxBLAzer DualScreen Kit (Thermo Fisher Scientific) to capture the remaining toxicity in ERα-UAS-bla GripTite after treatment with the aCYP catalyst (details in Text S2.4). […]
The TK-Ratio method was used to evaluate the impact of abiotic CYP oxidation on the potency of tested compounds. […]
For experiments with the preceding aCYP activation, ERα cell viability was additionally calculated from the readout of the ToxBLAzer reagent. The ToxBLAzer assay was conducted following the manufacturer's instructions (Thermo Fisher, Waltham, MA, U.S.).13 Fluorescence intensity was recorded at the start of the assay ( Fwavelength(0h)) and after a 2-hour incubation at […]
eq. S11 for normalization.
Cell viability = F665nm(2h, sample)-F665nm(0h, average cell-free) (S11) F665nm(2h, average unexposed)-F665nm(0h, average cell-free) […]
the specific endpoint to avoid artifacts from cytotoxicity burst. 15
S2.5: Concentration-response curves (CRCs)
To avoid bias from cytotoxicity burst at higher concentrations, all concentrations exceeding the IC10 for cytotoxicity were excluded in the CRC modeling of effects but otherwise cytotoxicity and effects were fitted with the same model equations (response stands for cytotoxicity or effect). For ERα, AhR, ARE and PPARγ preferably a linear model was fitted to the linear portion of CRC up to maximum 30% effect (eq. S12),16 but in some cases it was necessary to choose a sigmoidal log-concentration-response model, specifically a log-logistic model (eq. S13), to derive effect concentrations and cytotoxicity. […]
This was done using the
AutomatedBioassayScreening19 published by Braun et al.,20 which also included an algorithm to choose the best model between eq. S12 and eq. S13.
Response (%) = slope × C (S12) […]
logEC =logEC − 1 ∙log (max−min − 100%) (S14)

[2] = test system: HEK293T (ERα); conditions: for IC10, HEK293, ERα: HEK293 (ERα assay cells)
How it was run: (§1)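 Cells were seeded in 384-well plates for 24 h, then dosed in 11-step dilutions and exposed for 24 h at 37 °C. Viability came from IncuCyte confluency before and after exposure. Only concentrations below IC10 were used for EC10 or, for ARE, the concentration giving induction ratio 1.5 (ECIR1.5).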

[3] = test system: HEK293H (PPARγ); conditions: for IC10, HEK293, PPARγ: cytotoxicity, HEK293 (PPARγ assay cells)
How it was run: as §1

[4] = test system: H4IIe (AhR CALUX); conditions: for IC10, linear: linear model fit; for IC10, H4IIe, AhR: H4IIe (AhR assay cells)
How it was run: as §1

[5] = Octanol-water partition constant (log Kow) measurement, Sirius T3 potentiometric log P; type: physicochemical; conditions: experimental, this study
Protocol: Physicochemical properties provide input parameters for the baseline toxicity model. Acidity constants (pK a) and octanol–water partition constants of the neutral species (K ow) were measured with a Sirius T instrument from Pion Inc. (Sussex, UK) (Text S1.2 and Table S1). A detailed description of the pK a and K ow measurements can be found in literature. , […]
S1.2: pKa and log Kow measurements […]
titrator (Pion Inc., Sussex, U.K.). […]
UV absorbance. For log Kow measurement, approximately 1 mg of test chemical was added to a sample vial and the measurement was done automatically via the potentiometric log P protocol. Briefly, each compound is titrated thrice in an immiscible biphasic system of octanol and phosphate buffer solution and pH is continuously recorded. The shift in p Ka -values was used to estimate the log Kow values.2, 3 Data processing was performed with Sirius T3 Refine software (version 2.0.0.0.), and the final p Ka and log Kow values were calculated as the average of three titrations. To ensure reproducibility, measurements were conducted on at least two

[6] = Abiotic CYP (aCYP) oxidation, remaining parent compound (Cparent-Ratio); conditions: for Cparent-Ratio Rep.1 %: Table S9, replicate 1; for Cparent-Ratio Rep.2 %: Table S9, replicate 2
[7] = Table S10, TKcytotoxicity-Ratio
[8] = Bioassay ERα, cytotoxicity, dosing range high
[9] = Bioassay ERα, cytotoxicity, dosing range high, linear model fit
[10] = Bioassay ERα, cytotoxicity, dosing range high, log-logistic model fit
[11] = Bioassay ERα, cytotoxicity, dosing range low, linear model fit
[12] = Bioassay ERα, cytotoxicity, dosing range low, log-logistic model fit
[13] = PPARγ bioassay cytotoxicity, dosing range all
[14] = PPARγ bioassay cytotoxicity, dosing range all, linear model
[15] = PPARγ bioassay cytotoxicity, dosing range all, log-logistic model
[16] = Bioassay AhR, cytotoxicity, dosing range all
[17] = Bioassay AhR, cytotoxicity, dosing range all, log-logistic model fit
[18] = Table S11, TKcytotoxicity-Ratio
[19] = Bioassay ERα, cytotoxicity, dosing range all
[20] = Bioassay ERα, cytotoxicity, dosing range all, linear model fit
[21] = Bioassay ERα, cytotoxicity, dosing range all, log-logistic model fit
[22] = Table S9, loss of parent after aCYP oxidation
[23] = Table S9, mean of two replicate experiments
[24] = Table S9, replicate 1, as fraction
[25] = Table S9, replicate 2, as fraction
[26] = Table S11, measured simultaneously with bioassay

Row | Structure (SMILES) | logIC10 ([2]; human, 24 h) | logIC10 ([4]; rat, 24 h) | log Kow used [5] | TKcytotoxicity [1, 7] | IC10, linear transformed [2, 8] | IC10, linear [2, 9] | logIC10 [2, 10] | IC10, HEK293, ERα ([2]; cytotoxicity) [µM] | IC10, linear transformed [3, 13] | IC10, linear [3, 14] | logIC10 [3, 15] | IC10, HEK293, PPARγ [3] [µM] | IC10, linear transformed [4, 16] | IC10, linear [4, 16] | logIC10 [4, 17] | IC10, H4IIe, AhR ([4]; cytotoxicity) [µM] | IC10, linear transformed [2, 19] | IC10, linear [2, 20] | logIC10 [2, 21] | Toxic ratio (TR) TRERα ([2]; against baseline cytotoxicity) | also measured
1 | O=S(=O)(c1ccc(O)cc1)c1ccccc1O [2,4-BPS, 2,4'-Dihydroxydiphenyl sulfone] | -3.36 | -3.52 | 1.90 | – | – | – | – | – | – | – | – | – | – | – | – | – | – | – | – | – | TKcytotoxicity ([1]; human): 1.61; Toxic ratio (TR) TRERα ([2]; human, 24 h): 1.27; Toxic ratio (TR) TRPPARγ ([3]; human, 24 h): 2.23; logIC10 ([3]; human, 24 h): -3.73; Toxic ratio (TR) TRAhR ([4]; rat, 24 h): 3.11
2 | Oc1ccc(C(c2ccc(O)cc2)(C(F)(F)F)C(F)(F)F)cc1 [BPAF, 4,4'-(1,1,1,3,3,3-Hexafluoropropane-2,2-diyl)diphenol] | – | – | 4.72 | 1.14 | 5.56E-06 | no cytotoxicity | -5.02 | 9.47 | 4.34E-06 | 1.10E-05 | -5.04 | 9.12 | 3.99E-05 | 3.11E-05 | -4.40 | 31.1 | – | – | – | – | IC10, linear [2, 11]: no cytotoxicity; logIC10 [2, 12]: no cytotoxicity
3 | CC(c1ccccc1)(c1ccc(O)cc1)c1ccc(O)cc1 [BPAP, 4,4'-(1-Phenylethylidene)bisphenol] | – | – | 5.06 | – | – | – | – | 11.8 | 3.60E-06 | no cytotoxicity | -4.99 | 10.2 | 9.59E-05 | no cytotoxicity | -4.02 | 95.9 | 1.11E-05 | no cytotoxicity | -4.93 | – | TKcytotoxicity [1, 18]: 0.76
4 | CCC(C)(c1ccc(O)cc1)c1ccc(O)cc1 [BPB, 4,4'-(Butane-2,2-diyl)diphenol] | – | – | 3.72 | 0.24 | 6.28E-06 | no cytotoxicity | -4.68 | 20.9 | 2.50E-06 | 1.29E-05 | -4.83 | 14.8 | 8.31E-05 | 6.98E-05 | -4.08 | 69.8 | – | – | – | 0.43 | IC10, linear [2, 11]: no cytotoxicity; logIC10 [2, 12]: no cytotoxicity; Toxic ratio (TR) TRPPARγ ([3]; against baseline cytotoxicity): 0.61; Toxic ratio (TR) TRAhR ([4]; against baseline cytotoxicity): 0.31
5 | CC(c1ccc(O)cc1)c1ccc(O)cc1 [BPE, 4,4′-Ethylidenbisphenol] | – | – | 4.05 | 0.63 | – | – | – | 67.4 | 5.10E-06 | 6.46E-05 | -4.15 | 70.8 | 1.06E-04 | 8.43E-05 | -3.97 | 84.3 | 3.62E-05 | 6.74E-05 | -4.23 | – | –
6 | Oc1ccc(Cc2ccc(O)cc2)cc1 [BPF, Bis(4-hydroxyphenyl)methane] | – | – | 2.71 | 0.75 | – | – | – | 164 | 6.05E-06 | 1.05E-04 | -4.01 | 97.7 | 2.92E-04 | 2.92E-04 | -3.53 | 292 | 1.16E-05 | 1.61E-04 | -3.78 | – | TKcytotoxicity [1, 18]: 0.44
7 | O=S(=O)(c1ccc(O)cc1)c1ccc(O)cc1 [BPS, 4,4'-Sulfonyldiphenol] | – | – | 1.97 | – | 1.03E-04 | 5.20E-04 | -3.33 | 520 | 3.12E-05 | 6.15E-04 | -3.22 | 603 | – | – | – | – | – | – | – | – | IC10, linear transformed ([2]; ERα bioassay cytotoxicity, dosing range low): 5.72E-05; IC10, linear ([2]; ERα bioassay cytotoxicity, dosing range low, linear model): no cytotoxicity; logIC10 ([2]; ERα bioassay cytotoxicity, dosing range low, log-logistic model): no cytotoxicity
8 | CC(C)Oc1ccc(S(=O)(=O)c2ccc(O)cc2)cc1 [D8, 4-((4-Isopropoxyphenyl)sulfonyl)phenol] | -3.73 | -4.56 | – | 0.94 | – | – | – | – | – | – | – | – | – | – | – | – | – | – | – | 0.36 | IC10, linear [2]: no cytotoxicity; IC10, linear [3]: no cytotoxicity; Toxic ratio (TR) TRPPARγ ([3]; against baseline cytotoxicity): 0.93; logIC10 ([3]; human, 24 h): -4.15; Toxic ratio (TR) TRAhR ([4]; against baseline cytotoxicity): 2.94; % Loss [6, 22]: -13%; Cparent-Ratio Mean [6, 23]: 1.13; Cparent-Ratio Rep.1 % [6]: 114.96%; Cparent-Ratio Rep.1 [6, 24]: 1.15; Cparent-Ratio Rep.2 % [6]: 110.37%; Cparent-Ratio Rep.2 [6, 25]: 1.10
9 | CC(C)(c1cc(Br)c(O)c(Br)c1)c1cc(Br)c(O)c(Br)c1 [TBBPA, 3,3',5,5'-Tetrabromobisphenol A] | -4.81 | -3.80 | 5.91 | 0.52 | – | – | – | – | – | – | – | – | – | – | – | – | – | – | – | – | IC10, linear [2]: no cytotoxicity; % Loss [6, 22]: 8%
10 | Cc1cc(Cc2cc(C)c(O)c(C)c2)cc(C)c1O [TMBPF, Bis(3,5-dimethyl-4-hydroxyphenyl)methane] | – | – | – | 0.35 | – | – | – | 6.58 | 4.21E-07 | 3.65E-06 | -5.53 | 2.95 | 1.05E-04 | 1.11E-04 | -3.98 | 105 | 5.55E-06 | 6.58E-06 | -5.17 | 0.68 | Toxic ratio (TR) TRPPARγ ([3]; against baseline cytotoxicity): 1.52; Toxic ratio (TR) TRAhR ([4]; against baseline cytotoxicity): 0.13; % Loss [6, 22]: 31%; Cparent-Ratio Mean [6, 23]: 0.69; Cparent-Ratio Rep.1 % [6]: 58.94%; Cparent-Ratio Rep.1 [6, 24]: 0.59; Cparent-Ratio Rep.2 % [6]: 79.26%; Cparent-Ratio Rep.2 [6, 25]: 0.79; % Loss ([6]; Table S11): 56%; Cparent-Ratio Mean [6, 26]: 0.44; Cparent-Ratio Rep.1 [6, 26]: 0.29; Cparent-Ratio Rep.2 [6, 26]: 0.59
